According to BigSolDB 2.1:

**Q.** Which results are given for `O=c1[nH]c2ccccc2n1CCCN1CCC(n2c(=O)[nH]c3cc(Cl)ccc32)CC1`?
**A.** solubility (mole fraction) (in DMF, 323.15 K): 0.000679; solubility (mole fraction) (in DMF, 328.15 K): 0.000791; solubility (mole fraction) (in DMF, 333.15 K): 0.000911; solubility (mole fraction) (in DMSO, 323.15 K): 0.00142; solubility (mole fraction) (in DMSO, 328.15 K): 0.00171; solubility (mole fraction) (in DMSO, 333.15 K): 0.00209; solubility (mole fraction) (in isopropanol, 293.15 K): 1.85e-05; solubility (mole fraction) (in isopropanol, 298.15 K): 2.29e-05; solubility (mole fraction) (in isopropanol, 323.15 K): 6.48e-05; solubility (mole fraction) (in isopropanol, 328.15 K): 7.7e-05; solubility (mole fraction) (in isopropanol, 333.15 K): 8.99e-05; solubility (mole fraction) (in water, 323.15 K): 6.38e-07; solubility (mole fraction) (in water, 328.15 K): 7.73e-07; solubility (mole fraction) (in water, 333.15 K): 9.34e-07
